{"source": "paper PMC5077133", "about": "“Towards Development of Small Molecule Lipid II Inhibitors as Novel Antibiotics” (PLoS ONE, 2016)", "key": {"[1]": {"test_system": "Enterococcus faecalis EF1509", "assay": "Murine peritoneal sepsis model", "format": "in vivo, C57BL/6J mice", "conditions": "6jc48-1 100 mg/kg, ampicillin 300 mg/kg", "description": "Care of the mice met or exceeded the standards set forth by the National Institute of Health Guide for the care and use of laboratory animals and the AVMA panel on Euthanasia. All procedures in this study have been approved by the Institutional Animal Care and Use Committee (IACUC) at the University of Maryland Baltimore School of Medicine (Protocol number 02122005). Adult C57BL/6J mice (~18 grams, 8–10 weeks old) were used for all experiments. Mice were obtained from the Jackson Laboratory (Bar Harbor, Maine, USA) and housed in the IHV SPC animal core facility. Mice were fed standard chow (Harlan Laboratories) and water ad libitum. […] Infected animals (n = 5) were subsequently treated by intraperitoneal injection 30 min post-infection with 100 mg/kg of compound in 300 μL sterile saline solution, 5% Tween 80, 10% DMSO (V/V), ampicillin (300mg/kg), or vehicle (sterile saline solution, 5% Tween 80, 10% DMSO (V/V)) as positive and negative controls, respectively. Animals were closely observed during a period of 24 h and mice that show signs of severe sepsis were humanely euthanized. Mice were anesthetized by intraperitoneal injection of ketamine (80-100mg/kg) and xylazine (10–15 mg/kg). Once sedated, blood was collected by cardiac puncture. Immediately after blood collection the mice were euthanized by cervical dislocation. Spleens were harvested aseptically, weighed and homogenized in 500 μl of sterile saline solution using an IKA T10 basic disperser (IKA, Wilmington NC). Spleen homogenates were serially diluted and plated onto BHI agar plates. Bacterial counts were determined following 24 h incubation at 37°C and expressed as CFU per gram for spleen.\nWe established a murine model for sepsis to evaluate the efficacy of 6jc48-1 as an antibiotic agent in vivo. […] Based on the data obtained in the pharmacokinetic analysis, mice (n = 5) were inoculated intraperitoneally with E. faecalis EF1509 (~5 x 10^8 CFU/ animal) and treated after 30 min with compound 6jc48-1 (100 mg/kg IP), ampicillin (300 mg/kg IP) or vehicle. Animals were monitored for survival and after 24 h spleen samples were collected and analyzed for the presence of bacteria. Bacterial counts were determined by plating serial dilutions on BHI agar plates and compared to control treatment with ampicillin as measures of efficacy (Fig 5)."}, "[2]": {"assay": "Liver microsome stability", "format": "in vitro ADME", "conditions": "human, human liver microsomes, pH 7.4", "procedure": "The in vitro microsome stability assay was performed using human liver microsomes and a Biomek FXP liquid handling workstation to deliver reagents to a 96 deep well plate on a shaking peltier with temperature controls. Human liver microsomes were purchased from Corning®. The test compound was incubated in an aqueous reaction mixture (200 ul total volume) consisting of human liver microsomes (150 mixed donor pool) and NADPH Regenerating System Solutions A and B (Corning®) in the presence of 100 mM potassium phosphate buffer (pH 7.4). The NADPH solution A comprises nicotinamide adenine dinucleotide phosphate (NADP+) and glucose 6-phosphate and solution B contains glucose-6-phosphate dehydrogenase. Solutions A and B were combined prior to adding to the reaction plate to generate a supply of NADPH. The NADPH was added last to simultaneously initiate the reactions. The final concentration of the test compound was 10 uM and the microsomal protein concentration was 0.5 mg/ml. After incubation at 37°C, the reaction was terminated at 0, 5, 10, 20, 30, 40, 50 and 60 minutes, respectively, by the addition of 600 uL of acetonitrile. Three replicates were run for each time point. The quenched reaction plate was centrifuged at 4500 rpm for 10 minutes. The supernatant was diluted 1:2 in 30% Methanol in water for LC/MS/MS analyses to monitor substrate depletion. Water was substituted for NADPH for the zero time-point samples. A control plate, without NADPH cofactor, was completed on the same day, using the same conditions.\nThe half-life (t1/2) was obtained using the equation below: t1/2=−0.693/slope\nWhere slope is the slope of the line formed by ln(% remaining test compound) vs. time. The in vitro intrinsic clearance (CLint) value was calculated using equation: CLint=(0.693/t1/2)(incubation volume(ul)/total microsomal protein(mg))"}, "[3]": {"test_system": "E. faecalis (n=5) clinical isolates", "assay": "Activity against Enterococcus spp. (MIC)", "format": "cell-based", "conditions": "clinical isolates sensitive to linezolid and daptomycin", "procedure": "Determination of the Minimal Inhibitory Concentrations (MIC) by dilution was carried out by broth dilution according to CLSI standards."}}}
{"compound": "CC1(C)S[C@@H]2[C@H](NC(=O)[C@H](N)c3ccccc3)C(=O)N2[C@H]1C(=O)O", "note": "[ampicillin, reference compound]", "values": [{"measurement": "Bacterial counts in spleen", "setting": "[1]; IP treatment 30 min post-infection, spleen collected after 24 h", "result": "significant bacterial clearance"}, {"measurement": "Survival of infected animals", "setting": "[1]; n = 5, IP treatment 30 min post-infection, length of the experiment (24 h)", "result": "all animals"}]}
{"compound": "COc1ccc2c(c1)[C@]13CCCC[C@@H]1[C@H](C2)N(C)CC3", "note": "[dextromethorphan, reference compound]", "values": [{"measurement": "microsomal CLint at 10 uM", "setting": "[2]; read-out: Liver microsome intrinsic clearance (positive control)", "result": 31, "unit": "µL/min/mg"}, {"measurement": "half-life at 10 uM", "setting": "[2]; read-out: Liver microsome t1/2 (positive control)", "result": 40, "unit": "min"}]}
{"compound": "CN[C@H](CC(C)C)C(=O)N[C@H]1C(=O)N[C@@H](CC(N)=O)C(=O)N[C@H]2C(=O)N[C@H]3C(=O)N[C@H](C(=O)N[C@H](C(=O)O)c4cc(O)cc(O)c4-c4cc3ccc4O)[C@H](O)c3ccc(c(Cl)c3)Oc3cc2cc(c3O[C@@H]2O[C@H](CO)[C@@H](O)[C@H](O)[C@H]2O[C@H]2C[C@](C)(N)[C@H](O)[C@H](C)O2)Oc2ccc(cc2Cl)[C@H]1O", "note": "[Vancomycin]", "values": [{"measurement": "Activity (MIC) E. faecalis (n=5) clinical isolates", "setting": "[3]", "result": ">32"}]}
